Values of other authors as cited in patent US20140199404A1, “METHOD FOR TREATING CANCER BASED ON LEVEL OF A NUCLEOSIDE TRANSPORTER” (ABRAXIS BIOSCIENCE, LLC, priority 2013, published 2014).

What was measured:
[1] = system: locally advanced pancreatic cancer; settings: patients with locally advanced pancreatic cancer
pancreatic cancer = settings: Moore et al. 2007

Row | Compound | median overall survival [1] [months] | median time to disease progression [1] [months] | median overall survival (pancreatic cancer) [months] | median progression free survival (pancreatic cancer) [months]
1 | O=c1[nH]cc(F)c(=O)[nH]1 [5-FU, 5-fluororuracil] | 4.2 | 0.9 | – | –
2 | Nc1ccn([C@@H]2O[C@H](CO)[C@@H](O)C2(F)F)c(=O)n1 [gemcitabine] | 5.7 | 2.1 | 6.0 | 3.5
